35 compounds from patent publication US10968169B2, “Urea derivative” (Daiichi Sankyo Company, Limited, priority 2016, dated 2021) can be followed below.

tryptophanase of Bacteroides thetaiotamicron, sequence (Q8A7N2 entry or part of it, change not shown): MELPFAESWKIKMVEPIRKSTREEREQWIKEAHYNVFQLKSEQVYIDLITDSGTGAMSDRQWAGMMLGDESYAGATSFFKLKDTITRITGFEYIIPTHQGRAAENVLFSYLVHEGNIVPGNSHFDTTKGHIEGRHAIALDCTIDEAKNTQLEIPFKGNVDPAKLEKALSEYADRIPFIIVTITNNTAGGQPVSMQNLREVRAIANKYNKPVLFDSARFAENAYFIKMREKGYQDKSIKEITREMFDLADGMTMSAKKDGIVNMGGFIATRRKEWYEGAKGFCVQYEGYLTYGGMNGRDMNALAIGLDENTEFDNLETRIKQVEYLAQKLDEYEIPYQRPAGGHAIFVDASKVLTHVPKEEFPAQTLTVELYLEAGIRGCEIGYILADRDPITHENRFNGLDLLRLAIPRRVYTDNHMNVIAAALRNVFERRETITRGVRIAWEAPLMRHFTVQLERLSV

The assay has as its target tryptophanase of Bacteroides thetaiotamicron (Bacteroides thetaiotaomicron, UniProt Q8A7N2). The experiment in a line: Tryptophanase enzyme inhibitory activity (LDH-coupled NADH loss). It counts as biochemical. The settings on record: L-tryptophan 10 mM, 37° C., absorbance at 340 nm; read-out: Bacteroides Activity of Inhibiting Tryptophanase (IC50). Here is the method: Tryptophanase inhibitory activity was evaluated by a method using lactate dehydrogenase (LDH). The reaction time-dependent reduction in NADH conjugated with the enzymatic reaction, with LDH, of pyruvic acid produced through the enzymatic reaction of L-tryptophan as a substrate with tryptophanase, was measured with a spectrophotometer (Phillips-R S et al., Biochemistry, 23, 6228-6234 (1984)). Enzyme inhibitory activity obtained without adding a test compound (by adding DMSO alone) in the presence of tryptophanase was used as a control. As the enzyme, tryptophanase of Bacteroides thetaiotamicron (Genbank accession number: HC914434.1) was used. A test compound solution was prepared by dissolving each test compound in DMSO in an arbitrary concentration (from 30 mM to 30 nM at 10-fold common ratio). LDH, NADH and L-tryptophan were prepared, using distilled water, respectively to concentrations of 80 units/mL, 10 mM and […]. Bacteroides tryptophanase was prepared to 30 mg/mL. A potassium phosphate buffer was used as the buffer. [table] A reaction solution A was dispensed at 284.8 μL per well into a 96-well plate, and the test compound solution was added at 3.2 μL per well to obtain a final concentration of 1/100 (reaction solution B). The reaction solution B was incubated at 37° C. for 30 minutes, L-tryptophan was added thereto at 32 μL per well to obtain a final concentration of 10 mM (reaction solution C), and the enzyme reaction was performed at 37° C. over 30 minutes with absorbance at 340 nm measured for monitoring the NADH loss. Based on the NADH loss, the tryptophanase inhibitory activity of the compound was evaluated. Besides, the following compounds were similarly tested instead of the test compound.
As to `CCC(CC)(NC(=O)Nc1ccc(OC(F)(F)F)cc1)C(=O)O` [Example 1, 2-Ethyl-2-({[4-(trifluoromethoxy)phenyl]carbamoyl}amino)butanoic acid], the IC50 was 3.7 µM.

As for `CC(NC(=O)Nc1ccc(OC(F)(F)F)cc1)(C(=O)O)C1CC1` (centres unmarked) [Example 2, 2-Cyclopropyl-2-({[4-(trifluoromethoxy)phenyl]carbamoyl}amino)propanoic acid], the IC50 was 20.3 µM.

Regarding `CC(C)CC(C)(NC(=O)Nc1ccc(OC(F)(F)F)cc1)C(=O)O` (centres unmarked) [Example 3, 2-Methyl-N-{[4-(trifluoromethoxy)phenyl]carbamoyl}leucine], the IC50 turned out to be 8.7 µM.

`CC[C@@](C)(NC(=O)Nc1ccc(OC(F)(F)F)cc1)C(=O)O` [Example 4, (−)-N-{[4-(Trifluoromethoxy)phenyl]carbamoyl}-D-isovaline]: the IC50 was determined as 8.8 µM.

`O=C(Nc1ccc(OC(F)(F)F)cc1)NC(C(=O)O)(C1CC1)C1CC1` [Example 5, Dicyclopropyl({[4-(trifluoromethoxy)phenyl]carbamoyl}amino)acetic acid]: the IC50 stood at 1.7 µM.

For `CCCC(CC)(NC(=O)Nc1ccc(OC(F)(F)F)cc1)C(=O)O` (centres unmarked) [Example 6, 2-Ethyl-N-{[4-(trifluoromethoxy)phenyl]carbamoyl}norvaline], the concentration for half-maximal inhibition (IC50) came out at 5.3 µM.

`CCC(NC(=O)Nc1ccc(OC(F)(F)F)cc1)(C(=O)O)C1CC1` (centres unmarked) [Example 7, 2-Cyclopropyl-2-({[4-(trifluoromethoxy)phenyl]carbamoyl}amino)butanoic acid]: the half-maximal inhibitory concentration (IC50) was 0.3 µM.

`O=C(Nc1ccc(OC(F)F)cc1)NC(C(=O)O)(C1CC1)C1CC1` [Example 10, Dicyclopropyl({[4-(difluoromethoxy)phenyl]carbamoyl}amino)acetic acid]: the concentration for half-maximal inhibition (IC50) is 1.9 µM.

As to `CCC(NC(=O)Nc1ccc(OC(F)F)cc1)(C(=O)O)C1CC1` (centres unmarked) [Example 11, 2-Cyclopropyl-2-({[4-(difluoromethoxy)phenyl]carbamoyl}amino)butanoic acid], the 50% inhibitory concentration (IC50) is 0.6 µM.

As for `CC[C@@](C)(NC(=O)Nc1ccc(CC(F)(F)F)cc1)C(=O)O` [Example 13, N-{[4-(2,2,2-Trifluoroethyl)phenyl]carbamoyl}-D-isovaline], the IC50 worked out at 6.7 µM.

As for `CCC(CC)(NC(=O)Nc1ccc(SC(F)(F)F)cc1)C(=O)O` [Example 14, 2-Ethyl-2-[({4-[(trifluoromethyl)sulfanyl]phenyl}carbamoyl)amino]butanoic acid], the half-inhibitory concentration (IC50) came out at 0.4 µM.

In the case of `CCC(CC)(NC(=O)Nc1ccc(OC(F)F)cc1F)C(=O)O` [Example 16, 2-({[4-(Difluoromethoxy)-2-fluorophenyl]carbamoyl}amino)-2-ethylbutanoic acid], the IC50 turned out to be 4.2 µM.

`CC[C@@](C)(NC(=O)Nc1ccc(OC(F)F)cc1F)C(=O)O` [Example 17, N-{[4-(Difluoromethoxy)-2-fluorophenyl]carbamoyl}-D-isovaline]: the IC50 was determined as 12.3 µM.

As for `CC[C@@](C)(NC(=O)Nc1ccc(OC(F)F)c(Cl)c1)C(=O)O` [Example 18, N-{[3-Chloro-4-(difluoromethoxy)phenyl]carbamoyl}-D-isovaline], the IC50 was 5.3 µM.

As to `CC[C@@](C)(NC(=O)Nc1ccc(OC(F)(F)F)c(C#N)c1)C(=O)O` [Example 19, N-{[3-Cyano-4-(trifluoromethoxy)phenyl]carbamoyl}-D-isovaline], the IC50 is 35.6 µM.

As to `CCC(CC)(NC(=O)Nc1ccc(C(F)(F)F)cc1)C(=O)O` [Example 20, 2-Ethyl-2-({[4-(trifluoromethyl)phenyl]carbamoyl}amino)butanoic acid], the IC50 was found to be 11.6 µM.

For the compound `O=C(Nc1ccccc1)NC(C(=O)O)(C1CC1)C1CC1` [Example 21, Dicyclopropyl[(phenylcarbamoyl)amino]acetic acid], the IC50 was found to be 5 µM.

`CCC(NC(=O)Nc1ccccc1)(C(=O)O)C1CC1` (centres unmarked) [Example 22, 2-Cyclopropyl-2-[(phenylcarbamoyl)amino]butanoic acid]: the IC50 was 2.1 µM.

In the case of `CCC(NC(=O)Nc1ccc(F)cc1)(C(=O)O)C1CC1` (centres unmarked) [Example 23, 2-Cyclopropyl-2-{[(4-fluorophenyl)carbamoyl]amino}butanoic acid], the IC50 is 5.2 µM.

Consider `CC[C@@](C)(NC(=O)Nc1cccc(F)c1)C(=O)O` [Example 24, N-[(3-Fluorophenyl)carbamoyl]-D-isovaline], for which the IC50 turned out to be 33.2 µM.

As for `CC[C@@](C)(NC(=O)Nc1cccc(Cl)c1)C(=O)O` [Example 26, N-[(3-Chlorophenyl)carbamoyl]-D-isovaline], the IC50 stood at 13.2 µM.

As to `CCC(CC)(NC(=O)Nc1ccc(Cl)s1)C(=O)O` [Example 28, 2-{[(5-Chlorothiophen-2-yl)carbamoyl]amino}-2-ethylbutanoic acid], the IC50 amounted to 3.2 µM.

On to `CC[C@@](C)(NC(=O)Nc1ccc(Cl)c(Cl)c1)C(=O)O` [Example 29, N-[(3,4-Dichlorophenyl)carbamoyl]-D-isovaline], for which the IC50 was 15.5 µM.

With `CCC(NC(=O)Nc1cccc(C#N)c1)(C(=O)O)C1CC1` (centres unmarked) [Example 32, 2-{[(3-Cyanophenyl)carbamoyl]amino}-2-cyclopropylbutanoic acid], the IC50 stood at 1 µM.

As to `N#Cc1cccc(NC(=O)NC(C(=O)O)(C2CC2)C2CC2)c1` [Example 34, {[(3-Cyanophenyl)carbamoyl]amino}(dicyclopropyl)acetic acid], the IC50 was found to be 1.8 µM.

On to `N#Cc1ccc(NC(=O)NC(C(=O)O)(C2CC2)C2CC2)cc1` [Example 35, {[(4-Cyanophenyl)carbamoyl]amino}(dicyclopropyl)acetic acid], for which the IC50 was determined as 10.9 µM.

As for `CCC(CC)(NC(=O)Nc1cc(F)cc(C#N)c1)C(=O)O` [Example 36, 2-{[(3-Cyano-5-fluorophenyl)carbamoyl]amino}-2-ethylbutanoic acid], the IC50 was 20.1 µM.

With `CCC(CC)(NC(=O)Nc1ccc(Cl)c(C#N)c1)C(=O)O` [Example 37, 2-{[(4-Chloro-3-cyanophenyl)carbamoyl]amino}-2-ethylbutanoic acid], the IC50 was found to be 25 µM.

Regarding `N#CCc1ccc(NC(=O)NC(C(=O)O)(C2CC2)C2CC2)cc1` [Example 38, ({[4-(Cyanomethyl)phenyl]carbamoyl}amino)(dicyclopropyl)acetic acid], the IC50 worked out at 3.4 µM.

Turning to `CCC(CC)(NC(=O)Nc1ccc(C2(C#N)CC2)cc1)C(=O)O` [Example 39, 2-({[4-(1-Cyanocyclopropyl)phenyl]carbamoyl}amino)-2-ethylbutanoic acid], the IC50 amounted to 5.2 µM.

Consider `CCC(CC)(NC(=O)Nc1ccc(C(C)C#N)cc1)C(=O)O` (centres unmarked) [Example 40, 2-({[4-(1-Cyanoethyl)phenyl]carbamoyl}amino)-2-ethylbutanoic acid], for which the IC50 came to 5.8 µM.

Regarding `CCC(CC)(NC(=O)Nc1ccc(-c2ccccc2)cc1)C(=O)O` [Example 41, 2-[(Biphenyl-4-ylcarbamoyl)amino]-2-ethylbutanoic acid], the IC50 was determined as 0.3 µM.

As for `CCC(CC)(NC(=O)Nc1ccc(-c2ccccc2F)cc1)C(=O)O` [Example 42, 2-Ethyl-2-{[(2′-fluorobiphenyl-4-yl)carbamoyl]amino}butanoic acid], the IC50 amounted to 0.1 µM.

`CCC(CC)(NC(=O)Nc1ccc(N2CCCCC2)cc1)C(=O)O` [Example 43]: the half-maximal inhibitory concentration (IC50) amounted to 1.6 µM.

As to `CCC(CC)(NC(=O)Nc1ccc(N2CCC(F)(F)C2)cc1)C(=O)O` [Example 44, 2-({[4-(3,3-Difluoropyrrolidine-1-yl)phenyl]carbamoyl}amino)-2-ethylbutanoic acid], the IC50 was 2.5 µM.
